Experimental data as given in patent US20100144855A1, “APPLICATION OF SEDOISOPROSAN FOR PREPARATION OF MEDICINE FOR TREATMENT OF HUMAN HBeAg POSITIVE CHRONIC HEPATITIS B” (priority 2008, published 2010).

Assay: clinical trial, safety in HBeAg positive chronic hepatitis B patients
Format: in vivo, human
Settings: for cases with adverse events: 16 cases
Source text: The clinical trial protocol was designed according to the randomized, double-blind and controlled principle. The clinical efficacy and the safety of sedoisoprosan for therapy on human HBeAg positive chronic hepatitis B is defined according to the changes of vivo HBV-DNA level, ALT level, vital signs, blood routine indexes, blood biochemical indexes and thyroid function indexes before and after administration and the incidence of adverse events.
Patients enrolled in the clinical trials were randomly divided into four groups, i.e. negative control group (800 mg mannite), low dose group (200 mg sedoisoprosan with 600 mg mannite), median dose group (400 mg sedoisoprosan with 400 mg mannite) and high dose group (800 mg sedoisoprosan) respectively. Each patient was assigned with a CRF No. which was randomly generated by computer.
Baseline assessment was performed on the day of the first administration, which included medical examination, hematological examination, blood biochemical examination, thyroid function examination, ALT examination and quantitative detection of HBV-DNA. The medical examination included the examination of stature, avoirdupois, blood pressure and pulse rate. The hematological examination included the leucocyte, neutrophil, erythrocyte, platelet and haemoglobin counts, and the prothrombin time. The blood biochemical examination included the examination of serum potassium, sodium, GOT, total bilirubin, AKP, total protein, albumin, total cholesterol, triglyceride, urea nitrogen, creatinine and glucose.
The patients were followed up at the 1st, 2nd, 4th, 8th and 12th week of the treatment. The blood biochemical examination and the quantitative detection of HBV-DNA was performed at the 2nd, 4th, 8th and 12th week of the treatment, and the adverse events were recorded at the same time. The thyroid function examination was performed at the 12th week of the treatment.
The safety indexes included vital signs, clinical laboratory parameters, adverse events, important adverse events, serious adverse events and the early termination cases. The safety analysis should be performed on patients who have received at least once administration and were evaluated after the administration.
The detection of vital signs and laboratory parameters and the recording for adverse events was performed at baseline and at the 1st, 2nd, 4th, 8th and 12th week of the treatment. The vital signs and laboratory parameters were evaluated by the changes thereof before and after the treatment. The incidence of adverse events was figured by the proportion of patients having adverse events during the treatment, and the evaluation of adverse events included the kinds, grades and the relationship to the drugs. The adverse events were recorded by descriptive statistics, and comparison of the incidence thereof between the four groups was performed by Fisher probabilistic test.

[1] = high dose group, 800 mg, the 1st week
[2] = high dose group, 800 mg, the 2nd week
[3] = high dose group, 800 mg, the 4th week
[4] = high dose group, 800 mg, the 8th week
[5] = high dose group, 800 mg, the 12th week
[6] = low dose group, 200 mg, the 1st week
[7] = low dose group, 200 mg, the 2nd week
[8] = low dose group, 200 mg, the 4th week
[9] = low dose group, 200 mg, the 8th week
[10] = low dose group, 200 mg, the 12th week
[11] = median dose group, 400 mg, the 1st week
[12] = median dose group, 400 mg, the 2nd week
[13] = median dose group, 400 mg, the 4th week
[14] = median dose group, 400 mg, the 8th week

CC1(C)OC2C3COC(CO)(O3)C(O)C2O1 (centres unmarked) [sedoisoprosan, isopropylidene sedoheptulosan]
safety of the highest dose (vital signs, blood routine and blood biochemical indexes) (800 mg): safe
changes in total bilirubin levels before and after the treatment (12 weeks' treatment): significant changes in total bilirubin levels before and after the treatment, but such changes were still within the normal range
changes in vital signs, blood routine indexes and blood biochemical indexes, excluding the total bilirubin levels, before and after the treatment (12 weeks' treatment): No significant changes
important adverse events related to the study drug and needing treatment (CRF16, CRF19 and CRF20): 3 cases
central nervous system abnormalities among adverse events (all groups): No central nervous system abnormalities were found
incidence of adverse events (clinical trials, 200-800 mg): low
patients who quitted the clinical trials for adverse events (high dose group): No patients
cases with adverse events (high dose group (800 mg)): two
Avoirdupois [1]: 61.34 ± 9.96 kg
Diastolic Pressure [1]: 75.31 ± 7.26 mmHg
Pulse rate [1]: 76.00 ± 5.81 times/min
Respiratory frequency [1]: 18.00 ± 1.86 times/min
Systolic Pressure [1]: 115.56 ± 13.17 mmHg
Avoirdupois [2]: 61.41 ± 9.89 kg
Diastolic Pressure [2]: 75.31 ± 6.14 mmHg
Pulse rate [2]: 75.81 ± 5.27 times/min
Respiratory frequency [2]: 18.38 ± 1.78 times/min
Systolic Pressure [2]: 112.81 ± 12.55 mmHg
Avoirdupois [3]: 61.53 ± 9.81 kg
Diastolic Pressure [3]: 75.44 ± 6.03 mmHg
Pulse rate [3]: 76.38 ± 5.95 times/min
Respiratory frequency [3]: 17.94 ± 1.84 times/min
Systolic Pressure [3]: 112.69 ± 11.69 mmHg
Avoirdupois [4]: 62.06 ± 9.20 kg
Diastolic Pressure [4]: 77.56 ± 5.05 mmHg
Pulse rate [4]: 75.75 ± 5.27 times/min
Respiratory frequency [4]: 18.75 ± 1.24 times/min
Systolic Pressure [4]: 115.19 ± 10.91 mmHg
Avoirdupois [5]: 62.67 ± 9.45 kg
Diastolic Pressure [5]: 76.73 ± 5.16 mmHg
Pulse rate [5]: 75.73 ± 4.85 times/min
Respiratory frequency [5]: 19.13 ± 1.13 times/min
Systolic Pressure [5]: 115.20 ± 11.55 mmHg
cases with adverse events (low dose group (200 mg)): four
Avoirdupois [6]: 61.72 ± 10.47 kg
Diastolic Pressure [6]: 72.38 ± 5.14 mmHg
Pulse rate [6]: 76.06 ± 5.95 times/min
Respiratory frequency [6]: 18.63 ± 1.31 times/min
Systolic Pressure [6]: 116.63 ± 8.79 mmHg
Avoirdupois [7]: 61.59 ± 10.80 kg
Diastolic Pressure [7]: 73.38 ± 6.01 mmHg
Pulse rate [7]: 74.13 ± 4.70 times/min
Respiratory frequency [7]: 18.75 ± 1.57 times/min
Systolic Pressure [7]: 116.00 ± 10.67 mmHg
Avoirdupois [8]: 61.57 ± 10.72 kg
Diastolic Pressure [8]: 74.87 ± 6.55 mmHg
Pulse rate [8]: 75.13 ± 4.50 times/min
Respiratory frequency [8]: 18.60 ± 1.30 times/min
Systolic Pressure [8]: 113.93 ± 9.95 mmHg
Avoirdupois [9]: 62.86 ± 11.14 kg
Diastolic Pressure [9]: 73.29 ± 5.82 mmHg
Pulse rate [9]: 73.57 ± 5.65 times/min
Respiratory frequency [9]: 18.64 ± 1.45 times/min
Systolic Pressure [9]: 115.71 ± 9.75 mmHg
Avoirdupois [10]: 63.58 ± 12.09 kg
Diastolic Pressure [10]: 74.54 ± 4.94 mmHg
Pulse rate [10]: 71.54 ± 4.16 times/min
Respiratory frequency [10]: 19.15 ± 1.28 times/min
Systolic Pressure [10]: 115.85 ± 10.79 mmHg
cases with adverse events (median dose group (400 mg)): four
Avoirdupois [11]: 62.67 ± 12.11 kg
Diastolic Pressure [11]: 71.53 ± 7.53 mmHg
Pulse rate [11]: 77.60 ± 3.83 times/min
Respiratory frequency [11]: 19.13 ± 3.76 times/min
Systolic Pressure [11]: 114.33 ± 11.00 mmHg
Avoirdupois [12]: 62.30 ± 12.09 kg
Diastolic Pressure [12]: 71.73 ± 6.24 mmHg
Pulse rate [12]: 75.47 ± 5.36 times/min
Respiratory frequency [12]: 18.53 ± 3.54 times/min
Systolic Pressure [12]: 114.67 ± 9.85 mmHg
Avoirdupois [13]: 61.73 ± 9.86 kg
Diastolic Pressure [13]: 73.13 ± 5.69 mmHg
Pulse rate [13]: 76.40 ± 3.81 times/min
Respiratory frequency [13]: 18.40 ± 4.03 times/min
Systolic Pressure [13]: 115.80 ± 10.25 mmHg
Avoirdupois [14]: 62.70 ± 11.76 kg
Diastolic Pressure [14]: 73.73 ± 4.51 mmHg
Pulse rate [14]: 75.40 ± 3.25 times/min
Respiratory frequency [14]: 19.27 ± 2.34 times/min
Systolic Pressure [14]: 110.87 ± 7.70 mmHg
